{"source": "patent EP2884284A1", "about": "“Dry diagnostic reagent” (priority 2013, dated 2015)", "key": {"[1]": {"assay": "Moisture uptake over saturated K2SO4 solution at about 100% relative humidity", "conditions": "about 25°C, amorphous except for CaCl2"}, "[2]": {"assay": "Disintegration and dissolution time of lyophilisates, adjusted Ph. Eur. 7.4 oral lyophilisates method", "assay_type": "physicochemical", "conditions": "lyophilisate about 1 mg from 12.5 % (m/V) solution, 300 µL TRIS buffer pH 7.4, about 22°C, no stirring", "method": "Disintegration of substances described in Examples 5 and 6 were determined according to the method described in the European Pharmacopoeia 7.4 in monograph \"tablets\" section \"oral lyophilisates\". The disintegration time is acceptable if the oral lyophilisate disintegrates within 3 minutes in 200mL of \"purified water R\" at temperatures between 15°C and 25°C. Herein, disintegration is the loss of the overall structure, whereas dissolution means that the compound is completely dissolved.\nThis method was adjusted for the small volume lyophilisates which were used here (∼10 µL initial solution which corresponds to a lyophilysate mass of about 1 mg). Therefore the lyophilized product was added to 300 µL of TRIS buffer (adjusted pH 7.4 at 22°C) without any additional manipulation, e.g. shaking or stirring. In addition to the disintegration time the time until the whole product was completely dissolved, i.e. no visible particles detectable, has been determined at about 22°C (22.1 - 22.3 °C during the experiment).\n. It was not possible to lyophilize pure amorphous calcium lactate due to rapid solidification and partially crystallization of the solution, which contained also 12.5%(m/V) amorphous calcium lactate. Table 9: Disintegration time and dissolution time for substances"}, "[3]": {"assay": "Moisture uptake, modified Ph. Eur. 5.11 hygroscopicity method", "assay_type": "physicochemical", "conditions": "mass increase during 24h storage over saturated ammonium sulfate solution, 25°C, about 100 mg", "method": "It determines the mass increase (% (m/mo)) during a 24h storage period over a saturated ammonium sulfate solution."}, "[4]": {"assay": "Glass transition of the maximally frozen system Tg' by differential scanning calorimetry", "conditions": "solutions contained 12.5% (m/V) of the respective amorphous solid", "source_text": "Further, the temperature Tg' is the glass transition temperature of the maximally frozen system, i.e. the glass transition of the amorphous phase within an ice matrix (from ultrapure water)."}, "[5]": {"assay": "Solubility, Ph. Eur. 5.11 procedure in TRIS buffer", "from_the_text": "Table 3: Categorization of solubility according to Ph. Eur. 7.4"}, "[6]": {"assay": "Hygroscopicity measurement by mass increase in a glove box at relative air humidity > 50%", "assay_type": "physicochemical", "conditions": "1.0g sample, 22.5°C to […], 96 hours, referring to the initial mass", "method": "The hygroscopicity of compounds was measured by weighing (Mettler AT261 \"Delta Range\" balance) in the samples at the start of the experiment and at certain time points within a total period of 96 hours. The increase in mass (in %) was calculated for each sample as: (mt -mt0)/(mt0) × 100% [formula] • wherein mt is the mass of the sample at a certain time t and Mt0 is the mass of the sample at the start when placing it in the glove box."}, "citrated whole blood": {"system": "citrated whole blood", "assay": "ROTEM ex-tem assay, recalcification with freeze-dried pellets", "conditions": "freeze-dried CaCl2 pellets", "method": "The compatibility with coagulation measurement was determined using the ROTEM® device. The measurement was conducted according to the respective automated ROTEM® sequence. 300 µL citrated whole blood (obtained from healthy individuals) were used for each measurement. The pipetting of the respective liquid reagents was performed according to the sequence or was skipped for the solid reagents. […] Coagulation was initiated using the tissue factor based ex-tem® reagent.\nThe ex-tem® assay was selected because of the tissue factor coagulation activation and the resulting short clotting times (CT). Therefore it was possible to investigate whether the freeze-dried products containing a high amount of solid would dissolve rapidly enough to assure complete recalcification and clotting times within a normal range."}, "[7]": {"assay": "Glass transition temperature Tg by differential scanning calorimetry", "assay_type": "physicochemical", "method": "Hydranal® Coulomat AG Oven served as a reagent. About 10 mg of the substance was used for an expected residual moisture between 5 - 10%(m/m) and about 50 - 80 mg were used for an expected moisture content […]. […]\nPrimary drying was carried out at Tinlet = -30° C / 30mtorr for 15h followed by secondary drying at 40°C / 30mtorr for 6h with a heating rate between the two steps of 0.3 °C/min. The glass transition temperature as well as the residual moisture content were measured after freeze drying for the respective substance."}}}
{"compound": "O=C([O-])[C@H](O)[C@@H](O)[C@H](O[C@@H]1O[C@H](CO)[C@H](O)[C@H](O)[C@H]1O)[C@H](O)CO.O=C([O-])[C@H](O)[C@@H](O)[C@H](O[C@@H]1O[C@H](CO)[C@H](O)[C@H](O)[C@H]1O)[C@H](O)CO.[Ca+2]", "note": "[CLB, calcium lactobionate]", "values": [{"measurement": "Uptake rate during 3h storage at 99.9 % rel. humidity (sat. K2SO4 sol.)", "setting": "[1]", "result": "0.226 ratio compared to CaCl2"}, {"measurement": "Disintegration time", "setting": "[2]", "result": "<1", "unit": "s"}, {"measurement": "Dissolution time (mean ± sdv)", "setting": "[2]", "result": "13 ± 2", "unit": "s"}, {"measurement": "Ph. Eur. method Hygroscopicity", "setting": "[3]", "result": "21.08 %(m/mo"}, {"measurement": "Glass transition of the frozen system (Tg')", "setting": "[4]", "result": -13.27, "unit": "°C"}, {"measurement": "Ph. Eur. method Solubility", "setting": "[5]; 100mg substance, TRIS buffer isotonic pH = 7.4, 25.0°C, visual after 1 min. mixing and 15 min. storage", "result": "very soluble"}, {"measurement": "Calculated solubility Cs", "setting": "[5]; category limits of table 3 divided by Mr, 15 min", "result": "Cs ≥ 1.325 mol/L"}]}
{"compound": "[Ca+2].[Cl-].[Cl-]", "note": "[CaCl2, calcium chloride, reference compound]", "values": [{"measurement": "Uptake rate during 3h storage at 99.9 % rel. humidity (sat. K2SO4 sol.)", "setting": "[1]", "result": "1.000 ratio compared to CaCl2"}, {"measurement": "Ph. Eur. method Hygroscopicity", "setting": "[3]", "result": "CaCl2 = 113.9%(m/mo"}, {"measurement": "mass increase", "setting": "[6]", "result": "over 20%"}, {"measurement": "behaviour of freeze-dried pellets (hygroscopicity)", "setting": "citrated whole blood", "result": "liquefied rapidly"}]}
{"compound": "calcium lacto lactobionate [CLLB]", "values": [{"measurement": "Uptake rate during 3h storage at 99.9 % rel. humidity (sat. K2SO4 sol.)", "setting": "[1]", "result": "0.357 ratio compared to CaCl2"}, {"measurement": "Disintegration time", "setting": "[2]", "result": "<1", "unit": "s"}, {"measurement": "Dissolution time (mean ± sdv)", "setting": "[2]", "result": "18 ± 4", "unit": "s"}, {"measurement": "Ph. Eur. method Hygroscopicity", "setting": "[3]", "result": "19.18 %(m/mo"}, {"measurement": "Glass transition of the frozen system (Tg')", "setting": "[4]", "result": -15.58, "unit": "°C"}, {"measurement": "Tg", "setting": "[7]; CLLB ratio 0, moisture content 14 %(m/m)", "result": "34,39 °C"}, {"measurement": "Tg", "setting": "[7]; CLLB ratio 0, moisture content 5,196 %(m/m)", "result": "112,86 °C"}, {"measurement": "Tg", "setting": "[7]; CLLB ratio 0, moisture content 10,151 %(m/m)", "result": "58,45 °C"}, {"measurement": "Tg", "setting": "[7]; CLLB ratio 34.82, moisture content 0 %(m/m)", "result": 143.05, "unit": "°C"}, {"measurement": "Tg", "setting": "[7]; CLLB ratio 34.82, moisture content 4.44 %(m/m)", "result": 104.03, "unit": "°C"}, {"measurement": "Tg", "setting": "[7]; CLLB ratio 34.82, moisture content 7.26 %(m/m)", "result": 73.08, "unit": "°C"}, {"measurement": "Tg", "setting": "[7]; CLLB ratio 34.82, moisture content 9.86 %(m/m)", "result": 56.42, "unit": "°C"}, {"measurement": "Tg", "setting": "[7]; CLLB ratio 34.82, moisture content 11.82 %(m/m)", "result": 47.945, "unit": "°C"}, {"measurement": "Tg", "setting": "[7]; CLLB ratio 34.82, moisture content 14.60 %(m/m)", "result": 32.13, "unit": "°C"}, {"measurement": "Tg", "setting": "[7]; CLLB ratio 82.77, moisture content 0 %(m/m)", "result": 148.05, "unit": "°C"}, {"measurement": "Tg", "setting": "[7]; CLLB ratio 82.77, moisture content 5.19 %(m/m)", "result": 96.38, "unit": "°C"}, {"measurement": "Tg", "setting": "[7]; CLLB ratio 82.77, moisture content 6.35 %(m/m)", "result": 79.84, "unit": "°C"}, {"measurement": "Tg", "setting": "[7]; CLLB ratio 82.77, moisture content 6.93 %(m/m)", "result": 73.34, "unit": "°C"}, {"measurement": "Tg", "setting": "[7]; CLLB ratio 82.77, moisture content 8.00 %(m/m)", "result": 67.39, "unit": "°C"}, {"measurement": "Tg", "setting": "[7]; CLLB ratio 82.77, moisture content 14.49 %(m/m)", "result": 34.39, "unit": "°C"}, {"measurement": "Tg", "setting": "[7]; CLLB ratio %(m(CL)/m(CLB)) = 100, moisture content 0 %(m/m) (annealed)", "result": 140.08, "unit": "°C"}, {"measurement": "Tg", "setting": "[7]; CLLB ratio %(m(CL)/m(CLB)) = 100, moisture content 5.10 %(m/m)", "result": 82.46, "unit": "°C"}, {"measurement": "Tg", "setting": "[7]; CLLB ratio %(m(CL)/m(CLB)) = 100, moisture content 8.20 %(m/m)", "result": 64.81, "unit": "°C"}, {"measurement": "Tg", "setting": "[7]; CLLB ratio %(m(CL)/m(CLB)) = 100, moisture content 13.87 %(m/m)", "result": 30.65, "unit": "°C"}]}
